Assay results published in patent US20120022147A1, “2, 6 XYLIDINE DERIVATIVES FOR THE TREATMENT OF PAIN” (KRISANI BIOSCIENCES (P) LTD, priority 2011, published 2012).
Several values for one entry are separate records, joined by “and”; a condition that tells them apart may be missing. Identical values can stand only once. Marks after values point to notes of the source that are not given here.

Tested on: spinal nerve ligation model for neuropathic pain in rats
Assay: Von Frey test for mechanical allodynia in the spinal nerve ligation (Chung) model of neuropathic pain
Type: in vivo, rat
Conditions: for mean Von Frey force required for withdrawal of left operated leg, Baseline: baseline before surgery and treatment
Text: Experimental animals were male SD rats with a starting weight of 230-250 grams. Total number of animals were n=90 for surgery and n=60 after selection. The animals were caged in groups of 3 in a temperature and humidity controlled area. They were maintained on a 12 hr light/dark cycle and had ad libitum access to food and water. Rodent models of neuropathic pain are used to investigate the underlying mechanisms of pain associated with damage to peripheral nerves and to evaluate the efficacy of novel. Tactile sensitivity was measured 7-21 days post-surgery using von Frey monofilaments before and following treatment with gabapentin and other compounds (La Buda et al. 2005).
Neuropathic pain inducement was done by following principles of Chung induced model. The SD rats were anesthetized using ketamine/xylazine sodium. The rats were shaved and placed in prone position for surgery. The L5-L6 spinal nerves were surgically litigated. The rats were returned to their cages for recuperation and recovery under comfortable warm conditions using heat lamps.
After seven days of surgery a pre selection was performed. Animals that indicate signs of post operative pain were to be selected to proceed. Pain is detected by observing when one or more of the criteria are met as follows. Licking of the operated paw, accompanied by gentle biting or pulling on the nails with the mouth; placing the leg in the air; bearing weight on the side contra-lateral to the nerve injury; deformities of the hind paw and abnormal posture and walking; weakness of the left hind paw. […] However, the animal must be able to move its leg to ensure that the L4 spinal nerve is intact. If the animal cannot move its leg, it was excluded from the study.
Second level of selection of the rats was done on day 14 after the surgery. Von Frey test was performed on the preselected rats after day 7 on day 14. Using Von Frey methodology, animals with a pain threshold of ≦26 g for the operated leg will be included in the study. After this selection step, the animals were randomly placed into their experimental groups.
Blank, positive control and test compound: Blank was just the medium used for dissolving other compounds. The positive control was Gabapentin and the test compound was the final compound of formula 1 discussed in the instant disclosure. Three types of experimental groups were formed. Different types of chemicals such as Vehicle and Control were used to determine the efficacy of the chemicals as well comparison of the instant disclosed compound of formula 1, with a positive control was performed. The final compound of the instant disclosure was administered at 100 mg/kg and 150 mg/kg body weight as two different groups. The Gabapentin was administered at 150 mg/kg body weight.
On day 14 blank compound and final compound will be administered once daily starting on study day 14 through study day 21. Gabapentin, the positive control, will be administered 2 hours prior to pain testing on study days 14 and 21. The Von Frey test was be performed prior to final compound administration (pre-final compound injection) and after final compound administration at 0.5 hours, 2 hours and 4.5 hours post-final compound injection on study days 14 and 21. Additionally, if the Von Frey response for the operated leg of one of the six treatment groups is significant at 4.5 hours, all the groups will be tested again at 6.5 hours. In all instances, unless decided otherwise in the course of the study, all dosing solutions are applied as once a day intra peritoneal (IP) administration on each of the repeated dosing sessions. After the termination of the study the animals were euthanized.
Pain Response Evaluation: Pain response was evaluated using Von Frey test for mechanical allodynia. The Von Frey test for mechanical allodynia is based on applying short pulses of pressure that are not painful to a naïve animal. […]

[1] = 150 mg/kg IP, study days 14 and 21
[2] = Table 9 (day 14), male SD rats, mean
[3] = Table 10 (day 21), male SD rats
[4] = study day 14, before first dose, male SD rats
[5] = study day 14, 150 mg/kg IP, male SD rats
[6] = study day 14, 150 mg/kg IP, male SD rats, 150 mg/kg
[7] = study day 14, 150 mg/kg IP, male SD rats, listed as gabapentin, 150 mg/kg
[8] = study day 21, before that day's dose, KRB-5b once daily from day 14, gabapentin on days 14 and 21, 150 mg/kg IP
[9] = study day 21, 150 mg/kg IP, male SD rats
[10] = study day 21, 150 mg/kg IP, male SD rats, 150 mg/kg

NCC1(CC(=O)O)CCCCC1 [Gabapentin, reference compound]
analgesic effect on mechanical allodynia compared to Vehicle (in words) [1]: active only at 2 hours post dosing | mean Von Frey force required for withdrawal of left operated leg, Baseline [2]: 60.00 g | mean Von Frey force required for withdrawal of left operated leg, Baseline [3]: 60 g | mean Von Frey force required for withdrawal of left operated leg, Pre-treatment [4]: 9.69 g | mean Von Frey force required for withdrawal of left operated leg, 30 min Post treatment [5]: 9.85 g | mean Von Frey force required for withdrawal of left operated leg, 6.5 hr Post treatment [5]: 10.69 g | mean Von Frey force required for withdrawal of left operated leg, 2 hr Post treatment [6]: 35.69* g | mean Von Frey force required for withdrawal of left operated leg, 4.5 hr Post treatment [6]: 10.69 g | mean Von Frey force required for withdrawal of left operated leg, 2 hr Post treatment [7]: 35.69 ± 5.69 g | mean Von Frey force required for withdrawal of left operated leg, 4.5 hr Post treatment [7]: 10.69 ± 1.42 g | mean Von Frey force required for withdrawal of left operated leg, Pre-treatment [8]: 7.92 g | mean Von Frey force required for withdrawal of left operated leg, 30 min Post treatment [9]: 9.85 g | mean Von Frey force required for withdrawal of left operated leg, 6.5 hr Post treatment [9]: 9.62 g | mean Von Frey force required for withdrawal of left operated leg, 2 hr Post treatment [10]: 48.69±4.96 g and 48.69* g | mean Von Frey force required for withdrawal of left operated leg, 4.5 hr Post treatment [10]: 10.62 g | mean Von Frey force required for withdrawal of left operated leg, 4.5 hr Post treatment (study day 21, 150 mg/kg IP, male SD rats, listed as gabapentin, 150 mg/kg): 10.62 ± 0.90 g

CCN(CCOC(=O)CCCCC1CCSS1)CC(=O)Nc1c(C)cccc1C (stereo not shown) [KRB-5b]
analgesic activity compared to gabapentin (in words) [1]: prolonged analgesic activity compared to gabapentin | analgesic effect on mechanical allodynia compared to Vehicle (in words) [1]: effective as a pain analgesic item | analgesic effect on mechanical allodynia compared to Vehicle (in words) (150 mg/kg IP, study days 14 and 21, listed as formula 1): effective in treating the spinal nerve ligation model for neuropathic pain in rats | mean Von Frey force required for withdrawal of left operated leg, Baseline [2]: 60.00 g | mean Von Frey force required for withdrawal of left operated leg, Baseline [3]: 60 g | mean Von Frey force required for withdrawal of left operated leg, Pre-treatment [4]: 11.00 g | mean Von Frey force required for withdrawal of left operated leg, 30 min Post treatment [5]: 19.60 g | mean Von Frey force required for withdrawal of left operated leg, 6.5 hr Post treatment [5]: 16.40 g | mean Von Frey force required for withdrawal of left operated leg, 2 hr Post treatment [6]: 39.00±7.19 g and 39.00* g | mean Von Frey force required for withdrawal of left operated leg, 4.5 hr Post treatment [6]: 44.20±6.55 g and 44.20*# g | mean Von Frey force required for withdrawal of left operated leg, Pre-treatment [8]: 15.40 g | mean Von Frey force required for withdrawal of left operated leg, 30 min Post treatment [9]: 17.50 g | mean Von Frey force required for withdrawal of left operated leg, 2 hr Post treatment [9]: 21.30# g | mean Von Frey force required for withdrawal of left operated leg, 6.5 hr Post treatment [9]: 10.80 g | mean Von Frey force required for withdrawal of left operated leg, 4.5 hr Post treatment [10]: 26.20±5.81 g and 26.20*# g
